Our source for the IC50 values is ChEMBL document CHEMBL5233233, “Histone deacetylase 3 (HDAC3) inhibitors as anticancer agents: A review” (Eur J Med Chem, 2020).

SMILES strings stand for the structures.

Assay [1] addresses T1, Histone deacetylase 2 (Homo sapiens, UniProt Q92769). The assay can be described thus: Inhibition of human recombinant HDAC2 using Fluor-de-Lys as substrate at 50 uM for 30 mins by fluorescence based assay.
Assay [2] has as its target T2, Polyamine deacetylase HDAC10 (Homo sapiens, UniProt Q969S8).
T2 sequence (Q969S8 whole entry): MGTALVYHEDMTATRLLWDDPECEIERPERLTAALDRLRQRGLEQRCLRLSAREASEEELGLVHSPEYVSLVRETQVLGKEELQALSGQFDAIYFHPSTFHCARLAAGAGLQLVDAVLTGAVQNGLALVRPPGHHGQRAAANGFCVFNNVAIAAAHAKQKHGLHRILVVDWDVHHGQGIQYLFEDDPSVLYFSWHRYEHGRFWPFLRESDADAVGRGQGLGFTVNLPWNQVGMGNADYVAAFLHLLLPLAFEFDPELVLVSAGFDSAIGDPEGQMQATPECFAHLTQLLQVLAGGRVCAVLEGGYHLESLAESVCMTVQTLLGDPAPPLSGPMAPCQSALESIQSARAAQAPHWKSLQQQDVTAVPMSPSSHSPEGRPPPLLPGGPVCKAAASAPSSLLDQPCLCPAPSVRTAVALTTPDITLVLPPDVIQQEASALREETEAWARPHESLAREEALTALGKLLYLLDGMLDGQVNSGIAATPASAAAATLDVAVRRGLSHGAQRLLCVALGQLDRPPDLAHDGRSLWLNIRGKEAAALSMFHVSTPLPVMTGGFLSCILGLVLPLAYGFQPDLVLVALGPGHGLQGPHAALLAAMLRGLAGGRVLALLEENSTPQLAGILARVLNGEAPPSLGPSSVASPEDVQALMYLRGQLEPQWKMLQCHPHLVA
The assay can be described thus: Inhibition of human recombinant HDAC10 using Fluor-de-Lys as substrate at 50 uM for 30 mins by fluorescence based assay.

Assay [3] concerns the target T3, Histone deacetylase 1 (Homo sapiens, UniProt Q13547). The assay can be described thus: Inhibition of human recombinant HDAC1 using Fluor-de-Lys as substrate at 50 uM for 30 mins by fluorescence based assay.
Assay [4] addresses T4, Protein deacetylase HDAC6 (Homo sapiens, UniProt Q9UBN7).
T4 sequence (Q9UBN7 whole entry): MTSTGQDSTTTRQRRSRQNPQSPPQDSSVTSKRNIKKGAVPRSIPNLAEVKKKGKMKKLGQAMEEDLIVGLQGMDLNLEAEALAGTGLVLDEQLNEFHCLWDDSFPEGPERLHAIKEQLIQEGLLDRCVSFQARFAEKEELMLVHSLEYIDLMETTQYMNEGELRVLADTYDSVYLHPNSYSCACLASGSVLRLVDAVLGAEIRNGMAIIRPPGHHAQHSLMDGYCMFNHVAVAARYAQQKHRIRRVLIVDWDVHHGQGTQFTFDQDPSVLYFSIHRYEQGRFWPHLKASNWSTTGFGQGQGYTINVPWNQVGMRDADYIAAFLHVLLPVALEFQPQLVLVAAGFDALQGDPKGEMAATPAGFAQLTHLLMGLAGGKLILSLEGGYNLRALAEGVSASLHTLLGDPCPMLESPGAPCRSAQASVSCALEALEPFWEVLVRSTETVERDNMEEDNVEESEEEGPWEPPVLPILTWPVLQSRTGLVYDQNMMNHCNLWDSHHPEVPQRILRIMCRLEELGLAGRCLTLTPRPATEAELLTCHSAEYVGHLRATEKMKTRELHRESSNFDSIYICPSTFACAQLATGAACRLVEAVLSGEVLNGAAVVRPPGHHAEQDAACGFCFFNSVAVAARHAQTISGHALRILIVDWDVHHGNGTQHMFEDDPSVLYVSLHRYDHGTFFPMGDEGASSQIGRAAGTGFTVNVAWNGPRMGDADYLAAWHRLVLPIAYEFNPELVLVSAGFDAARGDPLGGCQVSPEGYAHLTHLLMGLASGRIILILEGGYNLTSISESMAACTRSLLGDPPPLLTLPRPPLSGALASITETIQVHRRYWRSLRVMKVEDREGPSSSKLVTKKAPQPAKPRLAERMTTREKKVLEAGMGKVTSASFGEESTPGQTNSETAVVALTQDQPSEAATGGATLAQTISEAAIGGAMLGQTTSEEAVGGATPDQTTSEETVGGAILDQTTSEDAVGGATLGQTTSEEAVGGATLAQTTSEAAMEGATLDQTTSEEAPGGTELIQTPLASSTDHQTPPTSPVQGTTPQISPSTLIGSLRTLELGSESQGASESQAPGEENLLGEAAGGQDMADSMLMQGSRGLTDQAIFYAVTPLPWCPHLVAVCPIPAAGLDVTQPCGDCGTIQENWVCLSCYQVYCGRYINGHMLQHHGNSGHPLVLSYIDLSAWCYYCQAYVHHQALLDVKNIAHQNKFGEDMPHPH
The assay can be described thus: Inhibition of human recombinant HDAC6 using Fluor-de-Lys as substrate at 50 uM for 30 mins by fluorescence based assay.

For a further assay, the system named is PC-3. In words: Anticancer activity against human PC-3 cells assessed as reduction in cell viability. Format: functional, cell-based.
In assay [5] the target is T1, Histone deacetylase 2. The assay can be described thus: Inhibition of human recombinant HDAC2 using fluorogenic HDAC substrate measured after 20 mins by fluorescence assay.
Assay [6] deals with T5, Histone deacetylase 3 (Homo sapiens, UniProt O15379). In words: Inhibition of human HDAC3 using fluorogenic as substrate measured after 30 mins by fluorescence based analysis.
T5 sequence (O15379 whole entry): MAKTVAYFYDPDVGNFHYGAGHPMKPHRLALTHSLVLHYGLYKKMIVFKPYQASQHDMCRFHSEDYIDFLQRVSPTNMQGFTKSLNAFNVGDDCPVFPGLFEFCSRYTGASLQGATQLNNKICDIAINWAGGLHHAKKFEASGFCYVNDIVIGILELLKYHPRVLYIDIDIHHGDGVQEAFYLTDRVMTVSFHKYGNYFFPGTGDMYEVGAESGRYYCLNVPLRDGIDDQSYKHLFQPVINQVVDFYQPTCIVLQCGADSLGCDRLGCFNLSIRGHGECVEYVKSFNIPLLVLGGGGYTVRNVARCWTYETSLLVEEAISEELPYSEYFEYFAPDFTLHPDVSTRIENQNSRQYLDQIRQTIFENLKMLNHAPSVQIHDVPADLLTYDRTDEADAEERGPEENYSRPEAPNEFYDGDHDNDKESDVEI
Assay [7] addresses T3, Histone deacetylase 1. In words: Inhibition of human recombinant HDAC1 using fluorogenic HDAC substrate measured after 20 mins by fluorescence assay.
Assay [8] has as its target T3, Histone deacetylase 1. In words: Inhibition of human recombinant HDAC1 using (FAM)-labeled acetylated peptide substrate at 1 uM incubated for 17 hrs by fluorescence based analysis.
In assay [9] the target is T4, Protein deacetylase HDAC6. The assay can be described thus: Inhibition of human recombinant HDAC6 using (FAM)-labeled acetylated peptide substrate at 1 uM incubated for 17 hrs by fluorescence based analysis.
Assay [10] addresses T6, Histone deacetylase 8 (Homo sapiens, UniProt Q9BY41).
T6 sequence (Q9BY41 whole entry): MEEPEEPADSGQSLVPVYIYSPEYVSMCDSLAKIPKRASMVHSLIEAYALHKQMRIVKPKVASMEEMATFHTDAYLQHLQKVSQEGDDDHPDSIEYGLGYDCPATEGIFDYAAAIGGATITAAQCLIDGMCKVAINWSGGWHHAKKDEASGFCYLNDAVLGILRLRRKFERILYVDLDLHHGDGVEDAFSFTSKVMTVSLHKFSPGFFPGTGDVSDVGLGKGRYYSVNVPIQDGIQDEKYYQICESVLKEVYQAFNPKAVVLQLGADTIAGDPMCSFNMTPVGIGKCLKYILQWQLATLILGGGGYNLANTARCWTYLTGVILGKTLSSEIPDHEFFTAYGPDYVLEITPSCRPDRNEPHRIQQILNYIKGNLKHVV
The assay can be described thus: Inhibition of human recombinant HDAC8 using (FAM)-labeled acetylated peptide substrate at 1 uM incubated for 17 hrs by fluorescence based analysis.

In assay [11] the target is T1, Histone deacetylase 2. In words: Inhibition of human recombinant HDAC2 using (FAM)-labeled acetylated peptide substrate at 1 uM incubated for 17 hrs by fluorescence based analysis.
In assay [12] the target is T3, Histone deacetylase 1. The assay can be described thus: Inhibition of human recombinant HDAC1 at 50 uM measured after 24 hrs by fluorometric analysis.
Assay [13] concerns the target T1, Histone deacetylase 2. In words: Inhibition of recombinant HDAC2 (unknown origin) at 50 uM measured after 24 hrs by fluorometric based analysis.
Assay [14] concerns the target T5, Histone deacetylase 3. The assay can be described thus: Inhibition of recombinant HDAC3 (unknown origin) measured after 24 hrs by fluorometric analysis.
In assay [15] the target is T5, Histone deacetylase 3. The assay can be described thus: Inhibition of HDAC3 (unknown origin).
For assay [16], the target named is T6, Histone deacetylase 8. The assay can be described thus: Inhibition of HDAC8 (unknown origin).
Assay [17] deals with T3, Histone deacetylase 1. In words: Inhibition of HDAC1 (unknown origin).
The target of assay [18] is T1, Histone deacetylase 2. The assay can be described thus: Inhibition of HDAC2 (unknown origin).
Assay [19] has as its target T5, Histone deacetylase 3. In words: Inhibition of HDAC3 (unknown origin) at 5uM.
The target in assay [20] is T5, Histone deacetylase 3. The assay can be described thus: Inhibition of HDAC3 (unknown origin) at 10 uM.
In assay [21] the target is T4, Protein deacetylase HDAC6. In words: Inhibition of HDAC6 (unknown origin) using Boc-Lys (Ac)-AMC as substrate measured after 30 mins by fluorescence based analysis.
The target of assay [22] is T3, Histone deacetylase 1. In words: Inhibition of HDAC1 (unknown origin) using Boc-Lys (Ac)-AMC as substrate measured after 30 mins by fluorescence based analysis.
The target in assay [23] is T5, Histone deacetylase 3. The assay can be described thus: Inhibition of HDAC3 (unknown origin) using Boc-Lys (Ac)-AMC as substrate measured after 30 mins by fluorescence based analysis.
Assay [24] has as its target T3, Histone deacetylase 1. The assay can be described thus: Inhibition of human HDAC1 by fluorescence based assay method.

T1 sequence (Q92769 whole entry): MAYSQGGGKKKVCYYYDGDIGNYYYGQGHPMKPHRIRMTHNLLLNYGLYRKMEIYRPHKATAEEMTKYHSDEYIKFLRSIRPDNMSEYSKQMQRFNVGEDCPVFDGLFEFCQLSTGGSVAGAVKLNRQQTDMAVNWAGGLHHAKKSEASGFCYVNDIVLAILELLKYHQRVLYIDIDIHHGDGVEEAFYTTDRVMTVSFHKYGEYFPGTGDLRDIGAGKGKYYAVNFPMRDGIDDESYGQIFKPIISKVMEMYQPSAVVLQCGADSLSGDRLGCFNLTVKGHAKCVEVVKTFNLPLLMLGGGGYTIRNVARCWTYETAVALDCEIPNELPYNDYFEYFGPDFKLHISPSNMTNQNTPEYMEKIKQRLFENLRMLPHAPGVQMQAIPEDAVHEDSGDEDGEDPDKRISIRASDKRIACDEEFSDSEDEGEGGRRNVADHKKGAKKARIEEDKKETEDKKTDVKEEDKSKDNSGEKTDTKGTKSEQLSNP
T3 sequence (Q13547 whole entry): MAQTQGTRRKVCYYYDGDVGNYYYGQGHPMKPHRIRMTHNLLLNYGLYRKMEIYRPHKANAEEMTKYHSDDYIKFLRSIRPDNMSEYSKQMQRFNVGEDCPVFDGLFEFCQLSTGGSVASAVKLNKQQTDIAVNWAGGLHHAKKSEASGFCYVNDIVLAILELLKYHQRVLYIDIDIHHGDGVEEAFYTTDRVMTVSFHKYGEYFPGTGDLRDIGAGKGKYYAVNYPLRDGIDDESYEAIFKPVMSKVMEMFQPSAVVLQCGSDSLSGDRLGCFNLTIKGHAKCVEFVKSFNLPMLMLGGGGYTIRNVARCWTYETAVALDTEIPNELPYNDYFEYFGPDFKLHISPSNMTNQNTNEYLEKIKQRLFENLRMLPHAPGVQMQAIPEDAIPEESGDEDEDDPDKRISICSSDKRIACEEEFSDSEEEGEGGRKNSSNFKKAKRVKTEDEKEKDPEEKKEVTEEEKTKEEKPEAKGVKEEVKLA

Regarding `Nc1ccccc1NC(=O)CCCCCCC(=O)NO`, the IC50 turned out to be 101 nM at Histone deacetylase 2 [1], 49.3 nM in assay [2], 67.2 nM on Histone deacetylase 1 [3] and 9.93 nM in [4].

For `COc1ccccc1NC(=O)N[C@H](C(=O)Nc1ccc(C(=O)NO)cc1)c1ccccc1`, the IC50 with PC-3 was 1510 nM; on Histone deacetylase 2 [5] it was 19.5 nM; against Histone deacetylase 3 [6] it was 5.9 nM; at Histone deacetylase 1 [7], 4.8 nM.

Regarding `Nc1ccccc1NC(=O)CCCCCCC(=O)Nc1cccc(-c2cn(-c3ccccc3)nn2)c1`, the IC50 (at Histone deacetylase 1 [8]; in assay [9]; at Histone deacetylase 8 [10]; on Histone deacetylase 2 [11]) was > 30 µM throughout.

For `Nc1ccc(F)cc1NC(=O)c1cc2ccccc2o1`, the figures for the IC50 on Histone deacetylase 1 [12], at Histone deacetylase 2 [13] and at Histone deacetylase 3 [14] were 1200 nM, 1500 nM and 0.08 µM, respectively.

Take `Nc1ccccc1NC(=O)c1ccc(CNc2nc(-c3ccccc3)cs2)cc1`: the IC50 against Histone deacetylase 3 [15] worked out at 12 nM; against Histone deacetylase 8 [16], 4.1 µM; against Histone deacetylase 1 [17] it was 930 nM; on Histone deacetylase 2 [18], 85 nM.

Turning to `O=C(CCCCCCN1C=Cc2ccccc2C1)NO`, the IC50 against Histone deacetylase 3 [19] was 97 nM.

`COc1ccc(C(=O)N[C@@H](Cc2c[nH]c3ccccc23)C(=O)Nc2ccc(C(=O)Nc3ccc(-c4cccs4)cc3N)cc2)cc1`: on Histone deacetylase 3 [20], the IC50 turned out to be 62.5 µM.

Regarding `COC(=O)/C=C/c1ccc(OCCCNc2cc3c([nH]c4ccccc43)c(-c3ccc(OC)cc3)n2)c(OC)c1`, the IC50 in assay [21] turned out to be 13 nM; at Histone deacetylase 1 [22], 27 nM; at Histone deacetylase 3 [23], 148 nM.

`Nc1ccccc1NC(=O)c1ccc(CNc2nc(-c3ccccc3)c(-c3ccccc3)o2)cc1` gave an IC50 at Histone deacetylase 1 [24] of 6 nM.

With `COC(=O)/C=C/c1ccc(OCCNc2cc3c([nH]c4ccccc43)c(-c3ccc(OC)cc3)n2)c(OC)c1`, the IC50 in [21] stood at 17 nM; at Histone deacetylase 1 [22], 32 nM; at Histone deacetylase 3 [23], 125 nM.
